Paper PMC7761830, “Structure-Based Virtual Screening of Ultra-Large Library Yields Potent Antagonists for a Lipid GPCR” (Biomolecules, 2020)

What was measured:
wild-type CysLT2R = molecular target: T1, wild-type CysLT2R (Homo sapiens, UniProt Q9NS75); experiment: IP1 production assay, antagonist mode, co-stimulation with EC80 LTD4; type: cell-based; conditions: for inhibition at 30 µM: HEK293, compound 30 µM, LTD4 at EC80, HEK293, wild-type CysLT2R, read-out: inhibition of LTD4-induced IP1 production, single-concentration screen; for Emax: HEK293, read-out: CysLT2R (LTD4) % Max Inhibition ± SEM
T1 construct: expressed in transfected cells; host or cells: HEK293 (ATCC CRL-1573), transient transfection with Lipofectamine 3000
T1 sequence (Q9NS75 1-346): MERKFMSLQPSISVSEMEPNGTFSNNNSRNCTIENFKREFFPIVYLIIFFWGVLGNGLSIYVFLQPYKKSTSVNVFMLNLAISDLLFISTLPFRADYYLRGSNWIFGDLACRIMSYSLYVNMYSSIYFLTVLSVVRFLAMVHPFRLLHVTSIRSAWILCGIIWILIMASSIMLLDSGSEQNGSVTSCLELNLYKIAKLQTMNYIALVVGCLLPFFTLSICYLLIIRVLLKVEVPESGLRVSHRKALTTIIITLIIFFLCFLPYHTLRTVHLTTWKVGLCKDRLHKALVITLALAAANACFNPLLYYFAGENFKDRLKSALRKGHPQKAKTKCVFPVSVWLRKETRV
Description: (§1) For this assay, we used the Cisbio IP-One kit as previously described. […] At 48 h post-transfection, the media was removed and the cells were washed with fresh Hank’s Balanced Salt Solution (HBSS). […] After compound stimulation, the cells were incubated for 1 h at 37 °C and stimulated with IP1-D2 and Ab-Crypt reagents in Lysis Buffer. The cells were then incubated at room temperature for an additional hour. […] Normalized data were plotted using either the three-parameter or four-parameter EC50/IC50 fits of GraphPad Prism 8 (San Diego). […] Data represent the means ± SEM of at least three independent experiments performed in quadruplicate.

wild-type CysLT1R = molecular target: T2, wild-type CysLT1R (Homo sapiens, UniProt Q9Y271); experiment: as above; type: cell-based; conditions: for inhibition at 30 µM: HEK293, compound 30 µM, LTD4 at EC80, HEK293, wild-type CysLT1R, read-out: inhibition of LTD4-induced IP1 production, single-concentration screen; for Emax: HEK293, read-out: CysLT1R (LTD4) % Max Inhibition ± SEM
T2 construct: expressed in transfected cells; host or cells: HEK293 (ATCC CRL-1573), transient transfection with Lipofectamine 3000
T2 sequence (Q9Y271 1-337): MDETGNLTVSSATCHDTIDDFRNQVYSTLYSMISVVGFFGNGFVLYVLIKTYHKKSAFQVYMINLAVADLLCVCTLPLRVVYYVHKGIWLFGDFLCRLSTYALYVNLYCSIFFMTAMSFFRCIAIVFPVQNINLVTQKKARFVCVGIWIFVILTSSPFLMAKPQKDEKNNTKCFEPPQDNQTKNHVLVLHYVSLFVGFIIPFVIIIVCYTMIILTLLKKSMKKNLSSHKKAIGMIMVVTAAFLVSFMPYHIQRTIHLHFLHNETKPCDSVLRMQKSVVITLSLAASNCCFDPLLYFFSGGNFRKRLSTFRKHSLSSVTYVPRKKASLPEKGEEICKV
Description: as §1

remaining activity at 30 µM (wild-type CysLT2R) [%]	remaining activity at 30 µM (wild-type CysLT1R) [%]	inhibition at 30 µM (wild-type CysLT2R) [%]	Emax (wild-type CysLT2R) [%]	inhibition at 30 µM (wild-type CysLT1R) [%]	Emax (wild-type CysLT1R) [%]	SMILES
76.5	79.8					Cc1ccnc(-c2ccc(NC(=O)COC(C)C)cc2)n1 [BRI-12422]
73.5	58					CC(Sc1nc(Nc2ccccc2)c2ccccc2n1)C(=O)N1CCNC1=O (stereo not shown) [BRI-12358]
63.2	90.9					CN(CCCc1cc(-c2ccc(F)cc2)n[nH]1)S(=O)(=O)c1[nH]ncc1C(=O)O [BRI-12431]
40.9	51.3	≥ 50	13 ± 10	≥ 50	38 ± 16	CCc1ncnc(N[C@H]2C[C@@H](CNC(=O)c3ccn4cc(C)nc4c3)C2)c1F [BRI-12458]
48.4	77.4	≥ 50	6 ± 10			NC(=O)CN1CCN(C(=O)c2ccccc2NC(=O)c2ccc(Cl)cc2)CC1=O [BRI-12454]
110	88.6					O=C(O)CNC(=O)Cc1ccc(NC(=O)c2n[nH]c3ccccc23)cc1 [BRI-12313]
92.8	72.7					O=C(Cn1ccc(=O)[nH]c1=O)Nc1cccc(C=Cc2ccccn2)c1 [BRI-12354]
92.8	84.3					CN(CC(=O)Nc1ccc2[nH]ncc2c1)C1=NS(=O)(=O)c2ccccc21 [BRI-12331]
95.1	87.8					O=C(NC1CCCC1)c1ccc(NC(=O)C2C3C=CC(C3)C2C(=O)O)cc1 (stereo not shown) [BRI-12321]
87.8	88.8					O=C(O)CNC(=O)c1ccc(NC(=O)C2Cc3cc(F)ccc3O2)cc1 (stereo not shown) [BRI-12329]
90	91					COc1ccc(C2=NN(C(=O)CCC(=O)O)C(c3cccs3)C2)c(O)c1 (stereo not shown) [BRI-12316]
87.8	73.4					O=C(O)c1cc(S(=O)(=O)NCCc2ccc(Cl)cc2)ccc1O [BRI-12352]
71.1	84.2					NC(=O)c1ncn(C2CCCN(c3nc(-c4ccccc4)cs3)C2)n1 (stereo not shown) [BRI-12455]
66.4	95.8					CCC(=O)Nc1ccc(S(=O)(=O)NC(C)(C)CC(=O)O)cc1 [BRI-12472]
53.8	69.4					O=C(NCC1(O)CN(C(=O)c2ccc(=O)[nH]c2)C1)c1ccc2c(c1)CCC2 [BRI-12467]
79.3	76.1					CC1=C(C(=O)Nc2ccccc2)C(c2ccncc2)n2nc(CCCO)nc2N1 (stereo not shown) [BRI-12325]
86.5	77.9					Cn1cc(S(=O)(=O)N[C@@H]2CC[C@H](C(=O)O)C2)cc1C(N)=O [BRI-12303]
91.3	83.4					O=C(O)CC(NC(=O)c1ccc2[nH]ccc2c1)c1ccccc1 (stereo not shown) [BRI-12361]
67.8	67.5					O=C(O)CC1CN(S(=O)(=O)C=Cc2ccc(Cl)cc2)c2ccccc21 (stereo not shown) [BRI-12449]
67.3	83.8					CN(CCOc1ccc(OCc2ccccc2)cc1)C(=O)c1cc(=O)[nH]c2ccc(F)cc12 [BRI-12404]
41.8	72.6	≥ 50	5 ± 9			NS(=O)(=O)c1cc(C(=O)NCCc2ccc(OCC(=O)O)cc2)cs1 [BRI-12426]
112	81.2					C[C@@H]1C[C@H](C(=O)Nc2cccc(NC(=O)c3cccs3)c2)O[C@H]1C(=O)O [BRI-12306]

remaining activity at 30 µM (wild-type CysLT2R) [%]	remaining activity at 30 µM (wild-type CysLT1R) [%]	inhibition at 30 µM (wild-type CysLT2R) [%]	Emax (wild-type CysLT2R) [%]	inhibition at 30 µM (wild-type CysLT1R) [%]	Emax (wild-type CysLT1R) [%]	SMILES
88.7	62.6					Cc1cccn2cc(-c3cccc(NC(=O)Cn4c(=O)[nH]c(=O)c5ccccc54)c3)nc12 [BRI-12438]
60.8	103					CC(CNS(=O)(=O)c1csc(-c2ccc(F)cc2)n1)C(=O)O (stereo not shown) [BRI-12464]
70.9	88.3					O=C(O)CNC(=O)c1ccc(NC(=O)CCc2cccc(F)c2F)cc1 [BRI-12441]
95.5	66.4					O=C1CCc2cc(NC(=O)C(=O)NCCc3ccc4c(c3)OCO4)ccc2N1 [BRI-12338]
62	57.6					CCN(CC)C(=O)c1ccc(C(=O)OCc2cc(C(C)=O)no2)cc1 [BRI-12434]
61.2	65.3					O=C(O)CNS(=O)(=O)c1ccc(-c2ccc3c(c2)CCC3)s1 [BRI-12451]
70.4	83					CC(C)(C)CNC(=O)c1ccc(C(=O)Nc2ccccc2CC(=O)O)cc1 [BRI-12407]
93.4	72.1					NC(=O)COc1cccc(C(=O)NC(CC(=O)O)c2ccc(Cl)c(F)c2)c1 (stereo not shown) [BRI-12330]
92.5	79.5					CN(C(=O)c1ccc(C(=O)Nc2ccsc2C(N)=O)cc1)c1ccccc1 [BRI-12430]
62.3	73.3					O=C(NCC(O)c1cccc(OCc2ccccc2)c1)c1cc(=O)[nH]c2ccc(F)cc12 (stereo not shown) [BRI-12409]
78.9	70.2					O=C(O)COc1ccc(C=Cc2ccc3cccc(O)c3n2)cc1 [BRI-12340]
99.8	82					CC(C)c1c(C(=O)Nc2ccc3[nH]c(=O)[nH]c3c2)cnn1-c1ccccn1 [BRI-12339]
106	83.8					O=C(O)c1c(F)cccc1NS(=O)(=O)N1CCc2ccccc2C1 [BRI-12304]
61.4	69.5					O=C(Cn1c(=O)[nH]c(=O)c2ccccc21)N1CCc2[nH]c3ccc(F)cc3c2C1 [BRI-12341]
88.5	95.9					Cc1nc2c(C(N)=O)cnn2c(C)c1CCC(=O)N(C)c1ccc2cc[nH]c2c1 [BRI-12448]
79.1	69.8					CNC(=O)c1cccc(NC(=O)CN2c3cccc4cccc(c34)S2(=O)=O)c1 [BRI-12322]
101	95.6					CC1CC(C(=O)O)CN(C(=O)Nc2cccc(NC(=O)c3ccccc3)c2)C1 (stereo not shown) [BRI-12308]
67.7	72.4					O=C(Nc1ccc(C(=O)NC2CCCCC2)c(O)c1)c1ccc(F)c(S(=O)(=O)NC2CC2)c1 [BRI-12446]
62.7	76.2					O=C(O)CNC(=O)c1ccc(NS(=O)(=O)c2csc(-c3ccc(Cl)cc3)n2)cc1 [BRI-12433]
38.1	21	≥ 50	5 ± 7	≥ 50	33 ± 8	CC1(c2ccc(C(=O)Nc3nc(-c4ccccc4)cs3)cc2)NC(=O)NC1=O (stereo not shown) [BRI-12328]
68.2	96.1					Cc1cnnn1-c1ccc(NC(=O)c2cccc(NC(=O)CCCc3cccs3)c2)cc1 [BRI-12444]
56.8	85.1					O=C(CCCc1ccc2[nH]c(=O)[nH]c2c1)Nc1ccc(C(=O)Nc2cccnc2)cc1 [BRI-12415]
